From patent publication US6379658B1, “Human sweat malodor counteractant composition and process for using same” (International Flavors & Fragrances Inc., priority 1999, dated 2002)

Test: Human sweat malodor neutralization (jar method), headspace rated by trained panel using Magnitude Estimation
Conditions: single fragrance ingredient; % Reduction=100×[1-(malodor intensity/total intensity)]
Protocol: Malodor neutralization is evaluated by placing a specified amount of malodor into an uncapped, 1 ounce wide-mouth jar. This jar is placed into an 8 ounce wide-mouth jar containing a specified amount of test material or finished fragrance. The quantities of malodor and fragrance are dependent on the specific malodor model used. The 8 ounce jar is capped and allowed to equilibrate. The panelists then rate the headspace for (1) total intensity, (2) malodor intensity and (3) overall like/dislike (hedonics). They are provided with an identified sample of malodor as a reference. Each group of samples presented to the panel contains an unidentified positive control (a fragrance material with no malodor), two unidentified negative controls (malodor with no fragrance) and up to twelve test samples (each fragrance is presented in duplicate or triplicate).
It is to be noted that evaluations are carried out by panelists who have been extensively screened for their olfactory acuity and trained in the method of evaluation (Magnitude Estimation). Panelist performance is constantly monitored and reviewed.
All samples are coded with random 5-digit numbers. Panelists are instructed to select samples from the test set and evaluate them in a random order.
The results of these experiments are expressed in terms of malodor reduction (neutralization), change in overall intensity and improvement in hedonics.
The percent malodor reduction is calculated as:
% Reduction=100×[1-(malodor intensity/total intensity)]
or shown thusly: [formula]
wherein wherein RMOL represents malodor reduction; iMO is malodor intensity; and iT represents total intensity.
The following protocol has been developed to determine the level of odor neutralization:
1. A predetermined quantity of the malodor model is measured with a micropipette into an uncapped 1 oz. wide-mouth jar. This jar is subsequently placed into an 8 oz. wide-mouth jar containing a predetermined quantity of the test material. The 8 oz. jar is capped and allowed to equilibrate prior to evaluation;
2. […] Each judge is also presented with an identified sample of the malodor in order to reinforce the malodor discrimination task;
3. Each of the judges rate the headspace for (a) total odor intensity, (b) malodor intensity and (c) the overall like/dislike (hedonics) of the sample; and […]

Molecule	% Human Sweat Malodor Coverage [% reduction]
CC(=O)C(C)=CC1C(C)=CCCC1(C)C (centres unmarked) [γ-Methyl ionone, 4-(2,6,6-trimethyl-2-cyclohexen-1-yl)-3-methyl-3-buten-2-one]	93
CC(=O)CCc1ccccc1 [Benzyl acetone, benzyl acetone]	96
COc1ccc2ccccc2c1 [β-Naphthyl methyl ether, β-naphthyl methyl ether]	92
CC(=O)c1ccc2ccccc2c1 [Methyl β-naphthalene ketone, methyl β-naphthyl ketone]	96
mixture of hexahydro4,7-methanoinden-5-yl propionate and hexahydro-4,7-methanoinden-6-yl propionate [CYCLAPROP ™]	91
